According to patent publication US6599905B2, “Pyrazine compounds” (SmithKline Beecham Corporation, priority 1997, dated 2003):

Row | melting point | Structure (SMILES)
1 | 212 to 214 °C | O=C(Nc1cnc(-c2cc(Cl)cc(Cl)c2Cl)c(NC(=O)C2CC2)n1)C1CC1 [Example 9, 2,6-Dicyclopropylcarbonylamino-3-(2,3,5-trichlorophenyl) pyrazine]
2 | 240 to 244 °C | Nc1nc(NC(=O)C2CC2)cnc1-c1cc(Cl)cc(Cl)c1Cl [Example 9, 2-Amino-6-cyclopropylcarbonylamino-3-(2,3,5-trichlorophenyl)pyrazine]
3 | 227 to 229 °C | CC(C)C(=O)Nc1cnc(-c2cc(Cl)cc(Cl)c2Cl)c(NC(=O)C(C)C)n1 [Example 10, 2,6-Diisopropylcarbonylamino-3-(2,3,5-trichlorophenyl) pyrazine]
4 | 277 to 279 °C | N#Cc1nc(-c2cc(Cl)cc(Cl)c2Cl)c(N)nc1N [Example 17, 5-Cyano-2,6-Diamino-3-(2,3,5-trichlorophenyl)pyrazine]
